Reference: PMC10384010, “Chromatographic Data in Statistical Analysis of BBB Permeability Indices” (Membranes, 2023)

Columns and labels:
[1] = Reversed-phase TLC on RP-2 silanized plates (Rf); type: physicochemical; details: silica gel 60 RP-2 F254 silanized; water:methanol:acetonitrile 60:20:20, ammonium acetate pH 7.4
[2] = plasma protein binding, given as fraction; ref Drugbank; cited from earlier work
[3] = Normal-phase TLC on silica gel 60 F254 (Rf); type: physicochemical; details: water:methanol:acetonitrile 60:20:20, ammonium acetate pH 7.4
Description: The purity of the isolated substances was checked by TLC chromatography and densitometric scanning.
APIs were subjected to chromatographic in column (HPLC) and thin layer (TLC) formats. TLC chromatography was carried out on 20 cm × 20 cm glass plates by Merck, covered with silica gel and the addition of a fluorescent indicator. Merck TLC silica gel 60 F254 was used for the normal phase (NP). In the reverse phase (RP), RP-2 silanized plates were used (Merck TLC Silica gel 60 RP-2 F254, silanized). The mobile phase was buffered with ammonium acetate to pH 7.4 (LACH-NER, ammonium acetate).
Plates, after developing the chromatograms, were scanned using a densitometer (Desaga CD 60) with an analytical wavelength selected individually for drugs. The values of Rf (molecular descriptors: NP, RP) were determined.

[4] = HPLC on IAM (immobilized artificial membrane) column, retention factor; type: physicochemical; details: IAM.PC.DD.2 column; for k(IAM) retention factor: 10 mM phosphate buffer pH 7.4:acetonitrile 80:20; for logkIAM: logarithm of retention factor, phosphate buffer pH 7.4:acetonitrile 80:20
[5] = cited from earlier work
[6] = entering the CNS / not entering the CNS; ref Drugbank [36]; cited from earlier work

Row | SMILES | RP (Rf from RP-2 TLC plate) [1] | PB (protein binding) [2] | NP (Rf from NP TLC plate) [3] | k(IAM) retention factor [4] | logkIAM [4] | Kp,uu,brain (unbound brain-to-plasma drug partition coefficient) [5] | CNS+/- [6]
1 | CN1CCN2c3ccccc3Cc3ccccc3C2C1 (stereo not shown) [mianserin] | 0.55 | 0.9 | 0.54 | 21.72 | 1.34 | 3.22 | 1
2 | CC(=O)Nc1ccc(O)cc1 [paracetamol] | 0.92 | 0.25 | 0.93 | 0.32 | -0.49 | 0.73 | 1
3 | Cc1ncc2n1-c1ccc(Cl)cc1C(c1ccccc1F)=NC2 [midazolam] | 0.66 |  | 0.82 | 5.69 | 0.76 | 1.08 | 1
4 | CSc1ccc2c(c1)N(CCC1CCCCN1C)c1ccccc1S2 (stereo not shown) [thioridazine] | 0.4 |  | 0.47 | 47.61 | 1.68 | 3.5 | 1
5 | Nc1nnc(-c2cccc(Cl)c2Cl)c(N)n1 [lamotrigine] | 0.87 |  | 0.89 | 0.71 | -0.15 | 4.86 | 
6 | OCCOCCN1CCN(C2=Nc3ccccc3Sc3ccccc32)CC1 [quetiapine] | 0.73 | 0.83 | 0.68 | 17.02 | 1.23 | 1.26 | 1
7 | COc1ccc(C(CN(C)C)C2(O)CCCCC2)cc1 (stereo not shown) [venlafaxine] |  | 0.27 |  | 8.25 | 0.92 | 1.91 | 
8 | CNCCC(Oc1ccc(C(F)(F)F)cc1)c1ccccc1 (stereo not shown) [fluoxetine] | 0.54 | 0.945 | 0.68 | 66.64 | 1.82 | 5.23 | 
9 | NC(=O)N1c2ccccc2C=Cc2ccccc21 [carbamazepine] | 0.83 |  | 0.95 | 1.50 | 0.18 | 0.76 | 1
10 | CN(C)CCc1c[nH]c2ccc(Cn3cncn3)cc12 [rizatriptan] |  |  | 0.2 | 2.53 | 0.40 | 0.04 | 1
11 | CN(C)CCC=C1c2ccccc2CCc2ccccc21 [amitriptyline] | 0.67 |  | 0.32 |  |  | 1.33 | 1
12 | NCC1(CC(=O)O)CCCCC1 [gabapentin] |  | 0.03 |  |  |  | 0.44 | 
13 | CCCN1C[C@H](CSC)C[C@@H]2c3cccc4[nH]cc(c34)C[C@H]21 [pergolide] | 0.55 | 0.9 | 0.48 |  |  | 3.19 | 1
